# According to patent US10363261B2, “Enolase inhibitors and methods of treatment therewith” (Board of Regents, The University of Texas System, priority 2015, dated 2019):
# pIC50: −log10 of the molar value. Entries after “also recorded” stand apart in the source; their conditions may differ. Where two headings read alike, the source gives them in different places.
# Key:
# [1] = molecular target: ENO2 (Homo sapiens, UniProt P09104); test: Enolase enzymatic activity and Michaelis-Menten kinetic analysis, ENO2; conditions: for inhibition kinetics with respect to substrate 2-PGA: SF2312: at IC50
# Method: Human ENO1 and ENO2 were overexpressed in the human D423 cell line and used for enzymatic assays. […] Enzymatic activity was measured by monitoring fluorescence of NADH at 340 nm Exitation/460 nm emission using an Lactate dehydrogenase/Pyruvate kinase linked assay which links the formation of PEP to the oxidation of NADH to NAD+, as we have described in published work (Muller et al., 2012). Enzymatic activity was normalized to that in the absence of the inhibitor (set to 1) and plotted as function of inhibitor concentration.
# The Michaelis-Menten Kinetic analysis was performed using standard methods in the field such as those taught by Voet and Voet, 2011. The enzymatic activity of Enolase 1 or 2 v was determine over a concentration range of 10 mM to 0.5 mM 2-PG [S], in the presence of increasing concentrations of inhibitor [I].
# Native lysates of mouse tissues and human cell lines were prepared using 20 mM Tris HCl, 1 mM EDTA, and 1 mM β-mercaptoethanol at pH 7.4 and homogenized using a Polytron homogenizer three times for a period of 10 s followed by sonication, after which the lysates were cleared by centrifugation at 20,000 g for 10 minutes. Enolase activity was measured using two different methods, either by a fluorometric NADH-linked assay or a direct spectrophotometric assay via formation of PEP. In the fluorescent assay, enolase activity was measured via NADH oxidation in a pyruvate kinase-lactate dehydrogenase coupled assay as previously described (Muller, et al., 2012). The assay is conducted in 10 mM KCl, 5 mM MgSO4, 100 mM triethanolamine at pH 7.4, with 400 μM NADH and 2 mM ADP. 2-Phosphoglycerate (2-PGA), pyruvate kinase (PK) and lactate dehydrogenase (LDH) are provided in excess, with conversion of 2-PGA to PEP by enolase being rate limiting. PEP (with ADP) is substrate of PK; pyruvate formed by this reaction is linked to NADH oxidation by LDH. Enolase activity is determined by measuring oxidation of NADH fluorescently by excitation at 340 nm and emission at 460 nm. The substrate concentration, if not otherwise indicated, was 5 mM 2-PGA. Fluorescence was measured using Omega Fluorescence Plate Reader (BMG Labtech). Alternatively, Enolase activity was measured directly by the appearance of PEP from 2-PGA via absorption at 240 nm (Marangos, et al., 1978). The assay medium was the same, except that all the auxiliary reagents (PK/LDH, NADH, ADP) are omitted. Both assays were conducted in a 96-well plated format with the direct assay performed in UV-transmissible plates.
# [2] = molecular target: human ENO1 (Homo sapiens, UniProt P06733); test: Enolase enzymatic activity, NADH-linked pyruvate kinase/lactate dehydrogenase fluorescence assay, ENO1
# Method: (§4) Human ENO1 and ENO2 were overexpressed in the human D423 cell line and used for enzymatic assays. Inhibitors (PhAH, SF2312 and Deoxy-SF2312, Hex, Hepta, Pom-Hex, and Fosmidomycin) were incubated with the enzyme prior to addition of 5 mM 2-PG substrate. Enzymatic activity was measured by monitoring fluorescence of NADH at 340 nm Exitation/460 nm emission using an Lactate dehydrogenase/Pyruvate kinase linked assay which links the formation of PEP to the oxidation of NADH to NAD+, as we have described in published work (Muller et al., 2012). Enzymatic activity was normalized to that in the absence of the inhibitor (set to 1) and plotted as function of inhibitor concentration.
# (§5) Enolase activity was measured using two different methods, either by a fluorometric NADH-linked assay or a direct spectrophotometric assay via formation of PEP. In the fluorescent assay, enolase activity was measured via NADH oxidation in a pyruvate kinase-lactate dehydrogenase coupled assay as previously described (Muller, et al., 2012). The assay is conducted in 10 mM KCl, 5 mM MgSO4, 100 mM triethanolamine at pH 7.4, with 400 μM NADH and 2 mM ADP. 2-Phosphoglycerate (2-PGA), pyruvate kinase (PK) and lactate dehydrogenase (LDH) are provided in excess, with conversion of 2-PGA to PEP by enolase being rate limiting. PEP (with ADP) is substrate of PK; pyruvate formed by this reaction is linked to NADH oxidation by LDH. Enolase activity is determined by measuring oxidation of NADH fluorescently by excitation at 340 nm and emission at 460 nm. The substrate concentration, if not otherwise indicated, was 5 mM 2-PGA. Fluorescence was measured using Omega Fluorescence Plate Reader (BMG Labtech). Alternatively, Enolase activity was measured directly by the appearance of PEP from 2-PGA via absorption at 240 nm (Marangos, et al., 1978). The assay medium was the same, except that all the auxiliary reagents (PK/LDH, NADH, ADP) are omitted. Both assays were conducted in a 96-well plated format with the direct assay performed in UV-transmissible plates.
# [3] = system: ENO1 null glioma cells (D423-MG); test: Growth inhibition by live imaging (Incucyte) / crystal violet; format: cell-based, human; conditions: for pIC50: Homo sapiens, D-423MG, 72 h, confluence over 3 days, read-out: approximate IC50 for growth inhibition of ENO1 null glioma cells
# Method: (§1) Cell proliferation of glioma cell lines was assayed either through crystal violet staining or by live-cell confluence measurements with the IncuCyte (Essen BioScience). Growth curves using the IncuCyte were generated by confluence imaging every 4 hours with duplicate replicates with an initial seeding of 1500 cells/well in 96-well plates. At the indicated time point, cells were fixed with 10% formalin and stained with crystal violet. Dye extraction was performed using 10% acetic acid solution, and absorbance was read at 595 nm. Apoptotic cells were counted by staining with YO-PRO®-1 Iodide (491/509, Life Technologies, Y3603). Apoptotic cells become permeable to YO-PRO®-1 while live cells are not stained. Alternatively, Propidium Iodide was employed (Life Technologies) instead of YO-PRO. Total cell number was quantified by Hoechst 33342 (Cat# H3570 Invitrogen). Cells were seeded as 2×10^3 cells/well in 96-well plates and treated in the presence or absence of doxycycline. On the day of apoptosis survey, old media was removed and each well was filled to 100 μl with fresh media. Hoechst and YO-PRO®-1 were mixed in 1:100 PBS and 10 μl of the mixture was added in each well gently without touching the cells for a final dilution of 1:1000 from stock. Plates were then incubated at 37° C. for 2 hours. Image capture and quantification was done by High Content Screening System—Operetta (Perkin Elmer). ATP content was measured with the luciferase/luciferin CellTiter-Glo® assay. Briefly, 100 μl of CellTiter-Glo® assay media was added to 96-well plates containing 100 μl of media and cells. Lysis was achieved by the […] in the buffer and vigorous pipetting, and luminescence was determined using an Omega Luminescence Plate Reader (BMG Labtech). Results were expressed relative to vehicle treated control.
# (§2) The inhibitor effects were followed live-cell confluence measurements with the IncuCyte (Essen BioScience) as we described previously (Muller et al., 2012). Growth curves using the IncuCyte were generated by confluence imaging every 2 hours with quadruplicate replicates with and initial seeding of 10^3 cells/well in 96-well plates.
# (§3) At the indicated time point (usually 2 weeks), cells were fixed with 10% formalin and stained with 0.1% crystal violet solution for 1 h as described previously (Muller et al., 2012). Dye extraction was performed using 10% acetic acid solution, and absorbance was read at 595 nm.
# [4] = system: enolase (ENO1 and ENO2); test: Enolase inhibitory activity in vitro, isoform not distinguished (ENO1 and ENO2); format: biochemical, human
# Method: as §4, §5
# [5] = Stability in cell culture media by proton-decoupled 31P NMR
# Method: (§6) The stability of Pom-SF2312 in cell culture media (DMEM with 10% fetal bovine serum) was measured by proton-decoupled ^31P NMR on a Brucker 500 MHZ at the M. D. Anderson NMR core (FIG. 14).
# (§7) 1.5 mM Pom-Hex and 1.5 mM Pom-SF2312 were dissolved in standard cell culture media (DMEM media containing 10% FBS with the addition of 10% D2O for locking of the NMR signal). Proton-decoupled ^31P NMR scans were taken at repeated intervals. The experiment was performed at room temperature.
# [6] = Hematocrit / hemolytic anemia after IV administration; conditions: for hematocrit after treatment (drop from 45%): 100 mg/kg IV for longer than a week; for dose at which mild hemolytic anemia can be observed: as low as
# From the text: Erythrocytes are sensitive to disruptions in the glycolytic cycle as glycolysis is the cell's only source of energy in the form of ATP.
# [7] = system: ENO1 deleted glioma cells in neurospheres; test: Cell viability in 3 dimensional neurosphere conditions (tetramethylrhodamine); format: cell-based, human
# Method: The cellular viability studies of 3-dimensional tumospheres was performed by using the vital dye, tetramethylrhomdamine ethyl ester (TMRE). […] For reference, a brightfield picture was also taken.
# To more accurately model tumors, glioma cells were grown in 3 dimensional neurosphere conditions. The surface to volume ratio of the neurosphere was considerably smaller than in convention cell culture conditions and as such, compounds with poor cell penetration such as phosphonates have considerably lower efficacy than in conventional cell culture. […] However, under the same conditions, the cell permeable pro-drug, Pom-Hex, was highly toxic to ENO1 deleted glioma cells (FIG. 10B). Cell viability in spheres was monitored using 100 nM of tetramethylrhodamine, which is actively taken up by live but not dead cells.
# [8] = system: ATP levels in D423 ENO1-deleted glioma cells; test: ATP content (CellTiter-Glo); format: cell-based, human; conditions: 8 hours of treatment
# Method: as §1
# [9] = system: conversion of 13C-glucose to 13C-lactate in D423 ENO1-deleted glioma cells; test: 13C-NMR tracing of uniformly labeled 13C-glucose to 13C-lactate; conditions: 48 hours, 10 mM 13C-uniformly labeled glucose
# Method: Glucose labeled with heavy, non-radioactive, ^13C at carbon C-1 and ^13C at all carbon atoms were purchased from Cambridge Isotopes (CLM-420-1 and CLM-1396, respectively). Glucose free DMEM media was supplemented with 10 mM ^13C-1 or ^13C-all labeled Glucose. NMR metabolic tracing was performed by substituting conventional DMEM medium with glucose free DMEM medium, to which ^13C-1 glucose (Cambridge Isotopes) was supplemented at 10 mM. […] After 4 days, conditioned media was extracted with 80% methanol at −80° C., lyophilized and resuspended in D2O. Proton-decoupled ^13C NMR spectra were acquired using a 500 MHZ Bruker instrument in the M. D. Anderson NMR core facility.
# [10] = system: cell lines heterozygously deleted for ENO1; test: Sensitivity under conventional growth conditions, ENO1 heterozygous lines; format: cell-based, human
# Method: as §2, §3
# [11] = system: D423-MG glioma cells (1p36 deletion spanning ENO1); test: Intracranial D423-MG glioma tumors tracked by T2 MRI; format: in vivo, Nude mice; conditions: 10 mg/kg intravenous for 11 days
# Method: Nude mice were injected with D423-MG glioma cells which carry the 1p36 deletion spanning ENO1. Tumors formed around 30 days post injection and growth was tracked non-invasively by T2 MRI. In the absence of treatment, tumors grew continuously, ultimately killing the animal. The tumor area (right side of the brain) is distinguished from the normal mouse brain by high contrast. MRI measurements were performed in a 4.7 T Biospec USR47/40 (Bruker Biospin MRI, Billerica, Mass.) at the M. D. Anderson small animal imaging facility (SAIF). Briefly, animals were maintained under deep anesthesia with isoflurane with body temperature maintained by a heating blanket. Anesthetized mice were restrained with the head held in a stereotactic holder. Breathing was monitored and synchronized with the instrument. Routine tumor detection was done by T2-weighed imaging. First, a low resolution axial scan is taken to center the field properly, after which a series of high resolution axial and coronal scans are recorded.
# Nude mice were injected with D423-MG glioma cells which carry the 1p36 deletion spanning ENO1. Tumors formed around 30 days post injection and growth was tracked non-invasively by T2 MRI. In the absence of treatment, tumors grew continuously, ultimately killing the animal. The tumor area (right side of the brain) was distinguished from the normal mouse brain by high contrast. […]
# [12] = system: normal human astrocytes; test: Sensitivity under conventional growth conditions, normal cells; format: cell-based
# Method: as §2, §3
# [13] = physchem
# Method: as §6, §7
# [14] = system: VHL deleted kidney cancer cell lines RCC4 and 786-O; test: Live growth imaging (Incucyte) of VHL deleted vs VHL rescued kidney cancer cells; format: cell-based, human
# Method: as §2
# VHL is a common event in renal clear cell carcinoma. Deletion of VHL activates the HIF pathway, suppressing respiration and rendering cancer cells highly dependent on glycolysis. As such, efforts have been made to target glycolysis to achieve selective toxicity to VHL deficient kidney cancer. As such, the enolase inhibitor Pom-Hex was tested in VHL deteted kidney cancer cell lines. In two independent VHL deleted kidney cancer cell lines, RCC4 (bottom) and 786-O (top panel), the enolase inhibitor, Pom-Hex, was 4-8 times more toxic to the VHL deleted (upper), compared to isogenic rescued controls, expressing VHL from an ectopic locus (lower panels, italics). As in FIG. 12, growth in response to increasing doses of Pom-Hex was measured by live growth imaging using the Incucyte.
# [15] = system: ENO1 deleted Glioblastoma cell line, Gli56; test: Intracranial Gli56 glioblastoma tumors tracked by T2 MRI; format: in vivo, NUDE immunocompromised mice; conditions: Pom-SF2312 at 4 MPK
# From the text: Animals (NUDE immunocompromised mice) injected intracranially with the ENO1 deleted Glioblastoma cell line, Gli56. After 30 days, tumors became readily visible by MRI (T2, the white hyperintense regions are tumor on the background grey of the normal brain). In the absence of treatment, Gli56 tumors grow continuously (Mouse #1, and Mouse #3, from Day 30 to Day 40). […] The tumors have not recurred after discontinuation of treatment.
# [16] = Maximum tolerated dose; design: species or system NUDE immunocompromised mice; conditions: mouse, in vivo
# [17] = up to 10 mM, lysates of D423 ENO1 and ENO2 expressing cells
# Chain of ENO2 (P09104 whole entry): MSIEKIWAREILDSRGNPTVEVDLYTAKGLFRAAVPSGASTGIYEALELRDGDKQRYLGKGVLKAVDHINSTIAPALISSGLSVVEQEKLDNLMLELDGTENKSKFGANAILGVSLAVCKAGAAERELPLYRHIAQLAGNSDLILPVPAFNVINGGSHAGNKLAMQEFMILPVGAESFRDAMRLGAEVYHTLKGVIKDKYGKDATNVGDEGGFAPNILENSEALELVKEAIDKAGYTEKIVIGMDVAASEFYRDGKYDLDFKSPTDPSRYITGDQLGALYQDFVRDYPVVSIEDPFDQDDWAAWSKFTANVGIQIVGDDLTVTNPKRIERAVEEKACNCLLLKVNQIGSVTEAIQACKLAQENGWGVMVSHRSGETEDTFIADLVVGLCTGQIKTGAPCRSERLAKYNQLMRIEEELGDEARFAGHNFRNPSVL
# Chain of human ENO1 (P06733 whole entry): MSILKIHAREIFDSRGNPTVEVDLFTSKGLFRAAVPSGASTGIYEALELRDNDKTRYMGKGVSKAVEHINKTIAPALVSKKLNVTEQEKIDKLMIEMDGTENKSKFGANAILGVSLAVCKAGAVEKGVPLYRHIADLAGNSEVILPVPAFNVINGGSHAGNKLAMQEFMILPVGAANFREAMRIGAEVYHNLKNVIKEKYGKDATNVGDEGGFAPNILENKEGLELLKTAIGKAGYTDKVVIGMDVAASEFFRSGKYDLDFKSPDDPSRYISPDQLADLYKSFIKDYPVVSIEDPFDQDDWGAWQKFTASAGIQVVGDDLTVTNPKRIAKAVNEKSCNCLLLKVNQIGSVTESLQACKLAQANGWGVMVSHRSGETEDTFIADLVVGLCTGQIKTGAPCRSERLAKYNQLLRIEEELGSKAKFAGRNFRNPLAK
structure (smiles),measurement,setting,value
O=C1C(P(=O)(O)O)CCN1O (stereo not shown) [Deoxy-SF2312],pIC50,[1],~5.70
same,inhibition kinetics with respect to substrate 2-PGA,[1],clear competitive kinetics
same,pIC50,[2],~5.70
"CC(=O)OC1CC(P(=O)(OCOC(=O)C(C)(C)C)OCOC(=O)C(C)(C)C)C(=O)N1OC(C)=O (stereo not shown) [Diacetyl-POM-SF2312, (((1,5-diacetoxy-2-oxopyrrolidin-3-yl)phosphoryl)bis(oxy))bis(methylene) bis(2,2-dimethylpropanoate)]",pIC50,[3],~6.82
O=C(O)P(=O)(O)O [Foscarnet],enolase inhibitory activity,[4]; [17],no enolase inhibitory activity
same,enolase inhibitory activity,"[4]; up to 10 mM, lysates of D423 ENO1 and ENO2 expressing cells, listed as foscanet",no inhibitory activity was observed
C[C@@H]1O[C@@H]1P(=O)(O)O [Fosfomycin],enolase inhibitory activity,[4]; [17],no enolase inhibitory activity
same,enolase inhibitory activity,"[4]; up to 10 mM, lysates of D423 ENO1 and ENO2 expressing cells, listed as fosfomycin",no inhibitory activity was observed
O=CN(O)CCCP(=O)(O)O [Fosmidomycin],enolase inhibitory activity,"[4]; even concentrations of >10,000,000 nM",completely inactive
same,enolase inhibitory activity,[4]; [17],no enolase inhibitory activity; also recorded: no inhibitory activity was observed
CC(C)(C)C(=O)OCOP(=O)(O)C1CC(O)N(O)C1=O (stereo not shown) [Hemi-Pom-SF2312],hydrolysis to SF2312 in media,[5]; within 24 hours,did not appreciably hydrolyze
O=C1C(P(=O)(O)O)CCCN1O (stereo not shown) [Hex],hematocrit after treatment (drop from 45%),[6],29%
same,dose at which mild hemolytic anemia can be observed,[6],50 mg/kg
same,potency against ENO2 versus ENO1 (IC50 lower / activity greater for ENO2),[1]; ENO2 over ENO1,approximately 6 fold
same,Ki for ENO2 compared with ENO1,[1]; Lineweaver-Burke / Dixon plots,considerably lower Ki for ENO2 than ENO1
same,inhibition kinetics with respect to substrate 2-PGA,[1],competitive inhibitor
same,toxicity to ENO1 deleted glioma cells in neurosphere conditions,[7],only mildly sensitive
"O=C(CP(=O)(O)O)NO [PhAH, phosphonoacetohydroxamate]",hematocrit after treatment (drop from 45%),[6],29%
same,dose at which mild hemolytic anemia can be observed,[6],50 mg/kg
same,concentration reducing ATP levels by >40%,[8],> 100 µM
same,pIC50,[1],~7.70
same,pIC50,[2],~7.70
same,concentration sufficient to decrease the ratio of 13C Lactate/13C glucose by 70%,[9],50 µM
CC(C)(C)C(=O)OCOP(=O)(OCOC(=O)C(C)(C)C)C1CCCN(O)C1=O (stereo not shown) [Pom-Hex],sensitivity of cell lines heterozygously deleted for ENO1,[10],intermediate sensitivity
same,effect on hematocrit,[6]; doses as high as 10 mg/kg IV for up to 1 month,do not cause a statistically significant drop in hematocrit
same,effect on D423-MG intracranial tumor,[11],completely eradicated the tumor
same,toxicity to ENO1 deleted glioma cells in neurosphere conditions,[7],highly toxic
same,fold more potent than Hex,"[7]; FIGS. 10A & 10B, ENO1-deleted glioma cells",≥ 200 fold
same,sensitivity of normal human astrocytes,[12],highly resistant
same,half-life at 1.5 mM,[13],2160 min
same,pIC50,[3],~7.46
same,sensitivity of ENO1 deleted D423 glioma cells,[3]; conventional growth conditions,sensitive to even low nM levels of the inhibitor
same,"further hydrolysis to the free phosphonate (SF2312, Hex)",[5]; 72 hours of incubation,did not proceed further
same,time for half of the compound to hydrolyze in media,[5]; DMEM with 10% fetal bovine serum,more than 24 hours
same,pIC50,"[4]; against ENO1 and ENO2, incubated prior to 5 mM 2-PG, contaminant Hex not ruled out",~4.00
same,times more toxic to VHL deleted compared to isogenic rescued controls,[14],4-8 times
same,effect on Gli56 intracranial tumor growth,[15],profound tumor regression
"CC(C)(C)C(=O)OCOP(=O)(OCOC(=O)C(C)(C)C)C1CC(O)N(O)C1=O (stereo not shown) [Pom-SF2312, (((1,5-dihydroxy-2-oxopyrrolidin-3-yl)phosphoryl)bis(oxy))bis(methylene)bis(2,2-dimethylpropanoate)]",maximum tolerated dose,[16],4 MPK (mg/kg)
same,half-life at 1.5 mM,[13]; cell culture media,480 min
same,pIC50,[3],> 7.12
